Assay results taken from article PMC9301488, “Expression, Characterization, Fermentation, Immobilization, and Application of a Novel Esterase Est804 From Metagenomic Library in Pesticide Degradation” (Frontiers in Microbiology, 2022).

Tested on: T1, Est804
T1 construct: expressed in E. coli BL21(DE3); lysate supernatant called crude, His-tag purification described for SDS-PAGE
Assay: release of p-nitrophenol at […] nm, Lineweaver-Burk plot
Format: biochemical, soil metagenome
Details: free enzyme; 0.0-5.0 mM substrate; Britton-Robinson buffer pH 6.8, 40 °C (standard conditions); crude lysate supernatant mentioned, purity of the kinetic sample not clear

Compound: CC(=O)Oc1ccc([N+](=O)[O-])cc1 [ρ-nitrophenyl acetate]
- Km: 613 µM
